ChEMBL document CHEMBL3885881, “DrugMatrix”

Organism: Rattus norvegicus
Assay: DrugMatrix - Regimen: Daily Repeat
Type: toxicity, organism-based, Sprague-Dawley
Parameters: regimen Daily Repeat, gender Male, age 6-8 weeks
Details: in vivo, po, route oral GAVAGE, […]; for ABSOLUTE BASOPHIL / BASOPHIL / ABSOLUTE EOSINOPHIL / ABSOLUTE LYMPHOCYTE / ABSOLUTE MONOCYTE / ABSOLUTE SEGMENTED NEUTROPHIL / EOSINOPHIL / ERYTHROCYTE COUNT / HEMATOCRIT / HEMOGLOBIN / LEUKOCYTE COUNT / LYMPHOCYTE / MEAN CORPUSCULAR HEMOGLOBIN / MEAN CORPUSCULAR HEMOGLOBIN CONCENTRATION / MEAN CORPUSCULAR VOLUME / MONOCYTE / NEUTROPHIL / NUCLEATED RED BLOOD CELLS / PLATELET COUNT: tissue Blood; for ALANINE AMINOTRANSFERASE / ALBUMIN / ALKALINE PHOSPHATASE / ASPARTATE AMINOTRANSFERASE / BLOOD UREA NITROGEN / CARBON DIOXIDE / CHLORIDE / CHOLESTEROL / CREATINE PHOSPHOKINASE / CREATININE / GLUCOSE / LACTATE DEHYDROGENASE / LIPASE / PHOSPHORUS / SODIUM / TOTAL BILIRUBIN / TOTAL PROTEIN / URIC ACID: tissue Plasma
[1] = 0 mg/kg, 72 h, dose level Control, time 3 day
[2] = 0 mg/kg, 120 h, dose level Control, time 5 day
[3] = 12 mg/kg, 72 h, dose level Low, time 3 day
[4] = 12 mg/kg, 120 h, dose level Low, time 5 day
[5] = 24 mg/kg, 72 h, dose level M1, time 3 day
[6] = 24 mg/kg, 120 h, dose level M1, time 5 day
[7] = 47 mg/kg, 72 h, dose level High, time 3 day
[8] = 47 mg/kg, 120 h, dose level High, time 5 day

## Nc1nc2nc[nH]c2c(=S)[nH]1 [THIOGUANINE]
[1]
  ABSOLUTE BASOPHIL: 0 CELLS/uL
  BASOPHIL: 0%
[2]
  ABSOLUTE BASOPHIL: 0 CELLS/uL
  BASOPHIL: 0%
[3]
  ABSOLUTE BASOPHIL: 0 CELLS/uL
  ABSOLUTE EOSINOPHIL: 0 CELLS/uL
  ABSOLUTE LYMPHOCYTE: 1995.33 CELLS/uL
  ABSOLUTE MONOCYTE: 24.33 CELLS/uL
  ABSOLUTE SEGMENTED NEUTROPHIL: 1147 CELLS/uL
  BASOPHIL: 0%
  EOSINOPHIL: 0%
  ERYTHROCYTE COUNT: 5.75 x10E6/uL
  HEMATOCRIT: 36.93%
  HEMOGLOBIN: 14.27 G/DL
  LEUKOCYTE COUNT: 3.17 x10E3/uL
  LYMPHOCYTE: 50.67%
  MEAN CORPUSCULAR HEMOGLOBIN: 24.87 pg
  MEAN CORPUSCULAR HEMOGLOBIN CONCENTRATION: 38.6 G/DL
  MEAN CORPUSCULAR VOLUME: 64.37 fL
  MONOCYTE: 0.67%
  NEUTROPHIL: 48.67%
  NUCLEATED RED BLOOD CELLS: 0 /100WBC
  PLATELET COUNT: 1202 x10E3/uL
  ALANINE AMINOTRANSFERASE: 56.33 u/L
  ALBUMIN: 4.67 G/DL
  ALKALINE PHOSPHATASE: 631.67 u/L
  ASPARTATE AMINOTRANSFERASE: 116 u/L
  BLOOD UREA NITROGEN: 14.67 mg/dL
  CARBON DIOXIDE: 23 mmol/L
  CHLORIDE: 98.67 MEQ/L
  CHOLESTEROL: 58 mg/dL
  CREATINE PHOSPHOKINASE: 539.33 u/L
  CREATININE: 0.12 mg/dL
  GLUCOSE: 318 mg/dL
  LACTATE DEHYDROGENASE: 172 u/L
  LIPASE: 11.33 u/L
  PHOSPHORUS: 9.8 mg/dL
  SODIUM: 141.63 MEQ/L
  TOTAL BILIRUBIN: 0.17 mg/dL
  TOTAL PROTEIN: 6.73 G/DL
  URIC ACID: 1.43 mg/dL
[4]
  ABSOLUTE BASOPHIL: 0 CELLS/uL
  ABSOLUTE EOSINOPHIL: 52 CELLS/uL
  ABSOLUTE LYMPHOCYTE: 778 CELLS/uL
  ABSOLUTE MONOCYTE: 212 CELLS/uL
  ABSOLUTE SEGMENTED NEUTROPHIL: 8758 CELLS/uL
  BASOPHIL: 0%
  EOSINOPHIL: 0.67%
  ERYTHROCYTE COUNT: 4.29 x10E6/uL
  HEMATOCRIT: 27.5%
  HEMOGLOBIN: 11 G/DL
  LEUKOCYTE COUNT: 9.8 x10E3/uL
  LYMPHOCYTE: 8.33%
  MEAN CORPUSCULAR HEMOGLOBIN: 25.97 pg
  MEAN CORPUSCULAR HEMOGLOBIN CONCENTRATION: 40.5 G/DL
  MEAN CORPUSCULAR VOLUME: 64.23 fL
  MONOCYTE: 2%
  NEUTROPHIL: 89%
  NUCLEATED RED BLOOD CELLS: 0 /100WBC
  PLATELET COUNT: 1171.33 x10E3/uL
  ALANINE AMINOTRANSFERASE: 335.67 u/L
  ALBUMIN: 4.13 G/DL
  ALKALINE PHOSPHATASE: 261.67 u/L
  ASPARTATE AMINOTRANSFERASE: 551.67 u/L
  BLOOD UREA NITROGEN: 16.67 mg/dL
  CARBON DIOXIDE: 17.67 mmol/L
  CHLORIDE: 101 MEQ/L
  CHOLESTEROL: 60.33 mg/dL
  CREATINE PHOSPHOKINASE: 1296 u/L
  CREATININE: 0.11 mg/dL
  GLUCOSE: 204.67 mg/dL
  LACTATE DEHYDROGENASE: 625 u/L
  LIPASE: 9.67 u/L
  PHOSPHORUS: 13.37 mg/dL
  SODIUM: 141.53 MEQ/L
  TOTAL BILIRUBIN: 0.23 mg/dL
  TOTAL PROTEIN: 6.1 G/DL
  URIC ACID: 2.83 mg/dL
[5]
  ABSOLUTE BASOPHIL: 0 CELLS/uL
  ABSOLUTE EOSINOPHIL: 0 CELLS/uL
  ABSOLUTE MONOCYTE: 0 CELLS/uL
  BASOPHIL: 0%
  EOSINOPHIL: 0%
  MONOCYTE: 0%
[6]
  ABSOLUTE BASOPHIL: 0 CELLS/uL
  ABSOLUTE EOSINOPHIL: 46.33 CELLS/uL
  ABSOLUTE LYMPHOCYTE: 7006.33 CELLS/uL
  ABSOLUTE MONOCYTE: 30 CELLS/uL
  ABSOLUTE SEGMENTED NEUTROPHIL: 550.67 CELLS/uL
  BASOPHIL: 0%
  EOSINOPHIL: 0.67%
  ERYTHROCYTE COUNT: 5.49 x10E6/uL
  HEMATOCRIT: 33.33%
  HEMOGLOBIN: 13.27 G/DL
  LEUKOCYTE COUNT: 7.63 x10E3/uL
  LYMPHOCYTE: 91.67%
  MEAN CORPUSCULAR HEMOGLOBIN: 24.17 pg
  MEAN CORPUSCULAR HEMOGLOBIN CONCENTRATION: 39.8 G/DL
  MEAN CORPUSCULAR VOLUME: 60.83 fL
  MONOCYTE: 0.33%
  NEUTROPHIL: 7.33%
  NUCLEATED RED BLOOD CELLS: 0 /100WBC
  PLATELET COUNT: 1721.33 x10E3/uL
  ALANINE AMINOTRANSFERASE: 38.67 u/L
  ALBUMIN: 4.13 G/DL
  ALKALINE PHOSPHATASE: 266.67 u/L
  ASPARTATE AMINOTRANSFERASE: 89.33 u/L
  BLOOD UREA NITROGEN: 11 mg/dL
  CARBON DIOXIDE: 25 mmol/L
  CHLORIDE: 104.67 MEQ/L
  CHOLESTEROL: 66 mg/dL
  CREATINE PHOSPHOKINASE: 417.33 u/L
  CREATININE: 0.23 mg/dL
  GLUCOSE: 127.67 mg/dL
  LACTATE DEHYDROGENASE: 349 u/L
  LIPASE: 9.67 u/L
  PHOSPHORUS: 10.33 mg/dL
  SODIUM: 151.33 MEQ/L
  TOTAL BILIRUBIN: 0.33 mg/dL
  TOTAL PROTEIN: 5.97 G/DL
  URIC ACID: 1.17 mg/dL
[7]
  ABSOLUTE BASOPHIL: 0 CELLS/uL
  ABSOLUTE EOSINOPHIL: 53.33 CELLS/uL
  ABSOLUTE LYMPHOCYTE: 4257 CELLS/uL
  ABSOLUTE MONOCYTE: 26.67 CELLS/uL
  ABSOLUTE SEGMENTED NEUTROPHIL: 4229.67 CELLS/uL
  BASOPHIL: 0%
  EOSINOPHIL: 0.67%
  ERYTHROCYTE COUNT: 7.05 x10E6/uL
  HEMATOCRIT: 43.87%
  HEMOGLOBIN: 17.33 G/DL
  LEUKOCYTE COUNT: 8.57 x10E3/uL
  LYMPHOCYTE: 50%
  MEAN CORPUSCULAR HEMOGLOBIN: 24.57 pg
  MEAN CORPUSCULAR HEMOGLOBIN CONCENTRATION: 39.5 G/DL
  MEAN CORPUSCULAR VOLUME: 62.23 fL
  MONOCYTE: 0.33%
  NEUTROPHIL: 49%
  NUCLEATED RED BLOOD CELLS: 0 /100WBC
  PLATELET COUNT: 1024.33 x10E3/uL
  ALANINE AMINOTRANSFERASE: 35.67 u/L
  ALBUMIN: 3.03 G/DL
  ALKALINE PHOSPHATASE: 125 u/L
  ASPARTATE AMINOTRANSFERASE: 152.67 u/L
  BLOOD UREA NITROGEN: 21 mg/dL
  CARBON DIOXIDE: 16 mmol/L
  CHLORIDE: 97 MEQ/L
  CHOLESTEROL: 46.67 mg/dL
  CREATINE PHOSPHOKINASE: 4333 u/L
  CREATININE: 0.17 mg/dL
  GLUCOSE: 263.33 mg/dL
  LACTATE DEHYDROGENASE: 399 u/L
  LIPASE: 23.33 u/L
  PHOSPHORUS: 14.77 mg/dL
  SODIUM: 139.73 MEQ/L
  TOTAL BILIRUBIN: 0.17 mg/dL
  TOTAL PROTEIN: 4.33 G/DL
  URIC ACID: 3.1 mg/dL
[8]
  ABSOLUTE BASOPHIL: 0 CELLS/uL
  ABSOLUTE EOSINOPHIL: 0 CELLS/uL
  ABSOLUTE LYMPHOCYTE: 1200 CELLS/uL
  ABSOLUTE MONOCYTE: 72 CELLS/uL
  ABSOLUTE SEGMENTED NEUTROPHIL: 1128 CELLS/uL
  BASOPHIL: 0%
  EOSINOPHIL: 0%
  ERYTHROCYTE COUNT: 6.48 x10E6/uL
  HEMATOCRIT: 41.1%
  HEMOGLOBIN: 15.9 G/DL
  LEUKOCYTE COUNT: 2.4 x10E3/uL
  LYMPHOCYTE: 50%
  MEAN CORPUSCULAR HEMOGLOBIN: 24.5 pg
  MEAN CORPUSCULAR HEMOGLOBIN CONCENTRATION: 38.7 G/DL
  MEAN CORPUSCULAR VOLUME: 63.5 fL
  MONOCYTE: 3%
  NEUTROPHIL: 47%
  NUCLEATED RED BLOOD CELLS: 0 /100WBC
  PLATELET COUNT: 877 x10E3/uL
  ALANINE AMINOTRANSFERASE: 127 u/L
  ALBUMIN: 3.5 G/DL
  ALKALINE PHOSPHATASE: 205 u/L
  ASPARTATE AMINOTRANSFERASE: 290 u/L
  BLOOD UREA NITROGEN: 35 mg/dL
  CARBON DIOXIDE: 25 mmol/L
  CHLORIDE: 100 MEQ/L
  CHOLESTEROL: 56 mg/dL
  CREATINE PHOSPHOKINASE: 284 u/L
  CREATININE: 0.1 mg/dL
  GLUCOSE: 211 mg/dL
  LACTATE DEHYDROGENASE: 156 u/L
  LIPASE: 6 u/L
  PHOSPHORUS: 9.3 mg/dL
  SODIUM: 141.5 MEQ/L
  TOTAL BILIRUBIN: 0.2 mg/dL
  TOTAL PROTEIN: 6.1 G/DL
  URIC ACID: 1.5 mg/dL
